# Experimental data: patent publication US20200102349A1, “PEPTIDE REAGENTS AND METHODS FOR DETECTION AND TARGETING OF DYSPLASIA, EARLY CANCER AND CANCER” (THE REGENTS OF THE UNIVERSITY OF MICHIGAN, priority 2014, published 2020)
# Key:
# [1] = tested on: HT29 cells; experiment: Apparent association time constant on flow cytometry; type: binding, human
# Procedure: We measured the apparent association time constant of the peptide to HT29 cells as an assessment of binding onset. HT29 cells were grown to […] confluence in 10 cm dishes, and detached with PBS-based cell dissociation buffer (Invitrogen). Cells (˜10^5) were incubated with 5 μM QRH*-Cy5.5 at 4° C. for various time intervals ranging from 0 to 20 min. The cells were centrifuged, washed with cold PBS, and fixed with 4% PFA. Flow cytometry analysis was performed as described above, and the median fluorescence intensity (y) was ratioed with that of HT29 cells without addition of peptide at different time points (t) using Flowjo software. The rate constant k was calculated by fitting the data to a first order kinetics model, y(t)=Imax[1−exp^(−kt)], where Imax=maximum value,^60 using Prism 5.0 software (GraphPad Inc).
# [2] = tested on: human biliary tract epithelium; experiment: Immunofluorescence of QRH*-Cy5.5 on human biliary tract epithelium
# [3] = tested on: dysplastic crypts in polyps; experiment: Immunofluorescence on mouse colon polyp specimens; conditions: OCT embedded polyp specimens
# Procedure: Specimens of flat dysplasia in mouse colon were formalin fixed and processed as described above. Specimens of polypoid dysplasia in mouse colon were frozen in OCT (Sakura Finetek), cut in 10 μm sections, and incubated with 1:1000 dilution of primary goat anti-mouse anti-EGFR antibody and AF488-labeled secondary antibody, as described previously. The sections were washed 3× with PBS, fixed with 4% PFA for 10 min, washed with PBS 1×, and mounted with Prolong Gold reagent containing DAPI (Invitrogen). Confocal microscopy images were collected with DAPI, AF488, and Cy5.5 filters. Adjacent sections were processed for histology (H&E).
# [4] = tested on: SW480 cells; experiment: Peptide binding to colorectal cancer cells on confocal microscopy (SW480); type: cell-based, human; conditions: SW480, 5 μM, 3 min
# Procedure: (§1) HT29, SW480, and SW620 cells (˜10^3) were grown on cover slips to ˜80% confluence. The cells were washed 1× with PBS and incubated with 5 μM of QRH*-Cy5.5 and PEH*-Cy5.5 for 3 min at RT. The cells were then washed 3× in PBS, fixed with 4% paraformaldehyde (PFA) for 5 min, washed 1× with PBS, and then mounted on glass slides with ProLong Gold reagent containing DAPI (Invitrogen). Confocal fluorescence images were collected with FITC, Cy5.5, and DAPI filters (Leica Inverted SPSX Confocal Microscope System) using a 63× oil-immersion objective. Fluorescence intensities from 5 cells in 2 independent images were quantified using custom Matlab (Mathworks) software.
# (§2) We assessed binding of QRH*-Cy5.5 to a panel of colorectal cancer cells that vary in EGFR expression level on confocal microscopy. We observed binding of QRH*-Cy5.5 to the surface (arrows) of HT29, SW480, and SW620 cells with decreasing strength, FIG. 3A-C, scale bars 30 μm. […] Results are an average of 10 cells from 2 independent images. EGFR expression is shown on Western blot, FIG. 3H.
# [5] = biological target: T1, EGFR (Homo sapiens, UniProt P00533); experiment: Co-localization of EGFR peptide and anti-EGFR antibody binding on colorectal cancer cells; type: cell-based; set-up: endogenous in cells; host or cells: HT29 human colorectal adenocarcinoma cells (ATCC)
# Procedure: We evaluated co-localization of binding by the QRH*-Cy5.5 peptide and a validated anti-EGFR antibody on cells that overexpress EGFR. A panel of colorectal cancer cells (HT29, SW480, and SW620) was grown on cover slips to […]. QRH*-Cy5.5 at 5 μM concentration was incubated with each cell line for 1 hour at 4° C. The cells were washed and fixed with 4% PFA for 5 min. The cells were incubated with primary anti-EGFR antibody and secondary AF488-labeled antibody, as described previously. We applied the peptide rather than the antibody to the cells first because the peptide has a lower affinity and in the lower concentration (<10 μM) is less likely to interfere with antibody binding. Confocal fluorescence images were collected with FITC, Cy5.5, and DAPI filters using a 63× oil-immersion objective.
# [6] = tested on: HT29 cells; experiment: Peptide binding to colorectal cancer cells on confocal microscopy (HT29); type: cell-based, human; conditions: HT29, 5 μM, 3 min
# Procedure: as §1, §2
# [7] = biological target: T1, EGFR; experiment: siRNA knockdown of EGFR in HT29 cells, confocal fluorescence microscopy; type: cell-based; set-up: endogenous in cells; host or cells: HT29 human colorectal adenocarcinoma cells (ATCC)
# Procedure: as §1
# We used siRNA to knockdown expression of EGFR in HT29 cells. We used ON-TARGETplus human EGFR siRNA and ON-TARGETplus non-targeting pool (Thermo Scientific) per manufacturer's protocol. 5 μL of siRNA at 5 μM/L concentration was transfected into HT29 cells using DharmaFECT (Thermo Scientific). QRH*-Cy5.5 and PEH*-Cy5.5 were incubated with HT29 siEGFR and siCL cells. The cells were fixed with either 4% PFA or methanol. A 1:1000 dilution of primary monoclonal mouse anti-EGFR antibody (Thermo Scientific, # MS-396, clone 199.12, IgG2a isotype) was incubated overnight at 4° C. Afterwards, the cells were washed 3× with PBS, and further incubated with 1:500 dilution of AF488-labeled secondary goat anti-mouse IgG antibody (Life Technologies, # A-11029) for 1 hour at RT, washed 3×, and then mounted on glass slides with ProLong Gold reagent containing DAPI (Invitrogen). Confocal fluorescence images were collected with FITC, Cy5.5, and DAPI filters using a 63× oil-immersion objective.
# We validated specific binding of QRH*-Cy5.5 to EGFR on siRNA knockdown in HT29 cells. On confocal microscopy, QRH*-Cy5.5 (red), FIG. 2A, and AF488-labeled anti-EGFR (green), FIG. 2B, bind strongly to the surface (arrows) of control HT29 cells (transfected with siCL, non-targeting siRNA), scale bars 30 μm. […] The results (mean±std) for QRH*-Cy5.5, anti-EGFR AF488, and PEH*-Cy5.5 to control cells (siCL) were 7.8±1.7, 3.1±1.0, and 1.6±0.3 AU, respectively, and to EGFR knockdown cells (siEGFR) were 2.5±0.8, 1.0±0.4, and 1.9±0.7 AU, respectively, *P<0.01 by paired t-test, FIG. 2G. Results are an average of 10 cells from 2 images performed independently. EGFR expression is shown on Western blot, FIG. 12H.
substance,measurement,setting,value
QRHKPRE (SEQ ID NO: 1) with Cy5.5 fluorophore attached via a GGGSK linker (SEQ ID NO: 18) on the C-terminus [QRH*-Cy5.5],binding time scale (onset),[1],2.46 min
same,apparent association time constant k,"[1]; 5 μM, 4° C., flow cytometry",0.406 min⁻¹
same,staining on immunofluorescence,[2]; biliary intraepithelial neoplasia (BilIN) and biliary tract cancer,intense staining
same,staining on immunofluorescence,[2]; normal biliary tract epithelium,minimal staining
same,fluorescence for binding to dysplastic crypts,[3],increased fluorescence
same,fluorescence intensity of binding (mean±std),[4],2.4±0.4
same,co-localization with AF488-labeled anti-EGFR antibody,"[5]; HT29 cells, 5 μM",co-localize
same,binding on confocal microscopy,[5]; SW620 cells,Minimal binding
same,fluorescence intensity of binding (mean±std),[6],3.6±0.6
same,fluorescence intensity (mean±std),[7]; EGFR knockdown HT29 cells (siEGFR),2.5±0.8 AU
same,fluorescence intensity (mean±std),"[7]; control HT29 cells (siCL, non-targeting siRNA)",7.8±1.7 AU
